{"source": "PubChem BioAssay AID1645864", "about": "(Buhrlage Lab, Dana-Farber Cancer Institute and Novartis …, 2021)", "note": "Activity calls are given as the source filed them.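 Rule for the calls: active = maximal inhibition of USP17 at or above 30% in the confirmation dose-response, a value not among the printed readouts; inactive = the rest.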", "data": [{"target": "Ubiquitin carboxyl-terminal hydrolase 17-like protein 5 (Homo sapiens) (UniProt A8MUK1)", "sequence (A8MUK1 whole entry, looked up)": "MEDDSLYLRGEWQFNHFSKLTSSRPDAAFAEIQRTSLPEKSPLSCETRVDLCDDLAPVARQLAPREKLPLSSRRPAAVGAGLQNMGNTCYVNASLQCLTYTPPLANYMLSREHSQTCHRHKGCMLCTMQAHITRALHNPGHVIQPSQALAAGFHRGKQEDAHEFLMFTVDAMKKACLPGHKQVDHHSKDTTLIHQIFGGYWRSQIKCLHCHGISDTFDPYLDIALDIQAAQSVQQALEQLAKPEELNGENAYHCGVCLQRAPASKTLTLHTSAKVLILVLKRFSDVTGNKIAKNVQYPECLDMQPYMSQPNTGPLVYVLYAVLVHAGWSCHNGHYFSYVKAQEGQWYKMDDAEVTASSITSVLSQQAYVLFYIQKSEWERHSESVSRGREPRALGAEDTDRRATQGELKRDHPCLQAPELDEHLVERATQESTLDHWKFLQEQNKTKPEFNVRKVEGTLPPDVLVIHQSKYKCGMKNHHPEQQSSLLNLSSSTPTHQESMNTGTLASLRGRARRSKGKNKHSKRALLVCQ", "test": "ubiquitin-specific protease 17 DUB inhibitors, concentration-effect assay, cell-free, verification of initial screening actives (AID 1645864)", "settings": "purified USP17, ubiquitin-rhodamine cleavage fluorescence, 3 h", "values": [{"smiles": "O=c1c2ccccc2c(-c2nc(-c3ccncc3)no2)cn1-c1ccccc1", "IC50": "2.75 µM"}, {"smiles": "O=C(Nc1nc2c(ccc3ccccc32)s1)c1cccc(Br)c1", "IC50": "2.7 µM"}, {"smiles": "CSc1cccc(C(=O)Nc2ccc(-c3nc4ccccc4[nH]3)cc2)c1", "IC50": "9.57 µM"}, {"smiles": "CCc1ccc(C(C)NC(=O)C2CCN(c3ccc4nncn4n3)CC2)cc1", "note": "(stereo not given)", "IC50": "> 50 µM (inactive)"}, {"smiles": "COc1cc(NC(=O)Cc2ccccc2)ccc1NC(=O)c1cc2ccccc2o1", "IC50": "9.82 µM"}, {"smiles": "CCOC(=O)c1nc(Nc2ccc(OC)c(Cl)c2)c2ccccc2n1", "IC50": "25.3 µM"}, {"smiles": "O=C(CSc1nncc2ccccc12)Nc1ccc2c(c1)OCO2", "IC50": "> 50 µM (inactive)"}, {"smiles": "CCN1CCCC1CN(Cc1cc2cc(OC)ccc2[nH]c1=O)C(=O)NCc1ccccc1", "note": "(stereo not given)", "IC50": "> 50 µM (inactive)"}, {"smiles": "Cc1nc2c3ccccc3nc(NCc3ccc4c(c3)OCO4)n2n1", "IC50": "33.8 µM"}, {"smiles": "O=C(NC1(O)C(=O)c2ccccc2C1=O)c1ccc(-c2csnn2)cc1", "IC50": "19.5 µM"}, {"smiles": "Cc1ccc(OCCn2c(=N)n(C(C)C)c3ccccc32)cc1", "IC50": "> 50 µM (inactive)"}, {"smiles": "CSc1ncccc1C(=O)NC1(O)C(=O)c2ccccc2C1=O", "IC50": "4.57 µM"}, {"smiles": "Cc1ccc(N2CC(c3nc4ccccc4n3CCCCOc3ccccc3)CC2=O)cc1", "note": "(stereo not given)", "IC50": "> 50 µM (inactive)"}, {"smiles": "O=S(=O)(c1cccc(F)c1)N1CCN(c2nnnn2-c2ccccc2)CC1", "IC50": "40.3 µM"}, {"smiles": "COc1ccc(/C=C/C(=O)N2CCc3ccccc32)cc1S(=O)(=O)N1CCOCC1", "IC50": "> 50 µM (inactive)"}, {"smiles": "COc1cc(Cl)ccc1Nc1ncc(C(=O)Nc2cc(OC)c(OC)c(OC)c2)c2ccccc12", "IC50": "< 0.05 µM"}, {"smiles": "CC[C@H](C)[C@H](NC(=O)[C@H]([C@@H](C)CC)N(C)C(C)=O)C(=O)N[C@H](C(=O)N[C@@H](CC(C)C)C(=O)C1(C)CO1)[C@@H](C)O", "note": "(stereo not given in full)", "IC50": "> 50 µM (inactive)"}, {"smiles": "COc1ccccc1-c1nc(-c2nnn(Cc3ccc(C)cc3)c2C)no1", "IC50": "> 50 µM (inactive)"}, {"smiles": "O=C(Nc1ccc(-c2nnc3n2CCCCC3)cc1)c1ccc2c(c1)OCO2", "IC50": "> 50 µM (inactive)"}, {"smiles": "CCOc1ccc(C2=NCCNC3=C2C(c2ccccc2)N(c2ccccc2)C3=O)cc1", "note": "(stereo not given)", "IC50": "> 50 µM (inactive)"}, {"smiles": "O=C(Nc1cccc(Cl)c1)c1ncn2c1CNS(=O)(=O)c1ccccc1-2", "IC50": "6.05 µM"}, {"smiles": "CCCCc1nc2sc3c(NCCN4CCOCC4)ncnc3c2c2c1CCC2", "IC50": "> 50 µM (inactive)"}, {"smiles": "O=C(CSc1cn(Cc2ccccc2)c2ccccc12)Nc1ccc2c(c1)OCCO2", "IC50": "> 50 µM (inactive)"}, {"smiles": "Cc1ccc(Nc2nc(Nc3cccc(Cl)c3)nc3nccnc23)cc1", "IC50": "> 50 µM (inactive)"}, {"smiles": "CC1OC1C(=O)[C@]1(O)[C@H](C)[C@@H](O)[C@@]23O[C@@]2([C@H](O)c2c(O)cccc2C3=O)[C@H]1O", "note": "(stereo not given in full)", "IC50": "17.9 µM"}, {"smiles": "Cn1c(SCc2ccccc2)nnc1-c1csc(-c2ccccc2)n1", "IC50": "39 µM"}, {"smiles": "Cc1c(C(=O)c2ccccc2)c2ccccn2c1CCc1ccccn1", "IC50": "> 50 µM (inactive)"}, {"smiles": "COCCn1c(=O)[nH]c2cc(C(=O)NCCNc3ccc([N+](=O)[O-])cc3C#N)ccc2c1=O", "IC50": "3.57 µM"}, {"smiles": "O=C(Nc1cccc(Cl)c1)N1CCN(c2cc(C(F)(F)F)ccn2)CC1", "IC50": "12.3 µM"}, {"smiles": "Nc1ccc(NC(=O)c2cc3c(s2)CCC3)cc1[N+](=O)[O-]", "IC50": "24.6 µM"}, {"smiles": "O=C(NCc1ccc2c(c1)OCO2)c1cc(-c2cc(Cl)ccc2O)n[nH]1", "IC50": "3.15 µM"}, {"smiles": "CC(=O)N1CCOc2cc(S(=O)(=O)N3CCCC3c3cc(C)no3)ccc21", "note": "(stereo not given)", "IC50": "> 50 µM (inactive)"}, {"smiles": "Cc1cc2c(cc1C)NC(CC(=O)Nc1ccc(O)cc1)C(=O)N2", "note": "(stereo not given)", "IC50": "24.1 µM"}, {"smiles": "O=C1Oc2nc3ccccc3cc2CN1Cc1ccco1", "IC50": "23.9 µM"}, {"smiles": "CCCNc1cc(-c2ccccc2)nc2nc(-c3cccnc3)nn12", "IC50": "> 50 µM (inactive)"}, {"smiles": "Cc1cc(C)c2cc(CN(CCc3ccccc3)C(=O)Nc3ccccc3)c(=O)[nH]c2c1", "IC50": "43.5 µM"}, {"smiles": "CCOc1ccc(S(=O)(=O)Nc2ccc[nH]c2=O)cc1", "IC50": "> 50 µM (inactive)"}, {"smiles": "Cc1cc(C)cc(-n2cnc3cc(C(=O)NCCC4=CCCCC4)ccc32)c1", "IC50": "> 50 µM (inactive)"}, {"smiles": "O=C(NC1(O)C(=O)c2ccccc2C1=O)c1cccc2c1-c1ccccc1C2=O", "IC50": "11.2 µM"}, {"smiles": "Cc1cc(C(=O)Nc2ccc3nc(N4CCN(c5ncccn5)CC4)cc(C)c3c2)ccc1[N+](=O)[O-]", "IC50": "1.68 µM"}, {"smiles": "O=[N+]([O-])c1ccccc1C(c1c[nH]c2ccccc12)c1c[nH]c2ccccc12", "IC50": "24.6 µM"}, {"smiles": "Cc1ccc(-c2cnc(C3CC3)o2)cc1S(=O)(=O)Nc1ccc(F)c(Cl)c1", "IC50": "38.1 µM"}, {"smiles": "CC(=O)O[C@H]1[C@]2(O)C[C@]34SS[C@](CO)(C(=O)N3[C@@H]2C[C@@]12O[C@@H](C)C(C)(C)C2=O)N(C)C4=O", "IC50": "> 50 µM (inactive)"}, {"smiles": "COCCNC(=O)Cn1c(=O)n(Cc2ccccc2)c(=O)c2c3c(sc21)CCC3", "IC50": "33.5 µM"}, {"smiles": "CNS(=O)(=O)c1ccc(CNC(=O)c2cc(-c3ccc(C)cc3)no2)cc1", "IC50": "20.2 µM"}, {"smiles": "O=C(CCn1c(=O)c2ccccc2n(Cc2cc(=O)n3ccccc3n2)c1=O)NCCc1ccc(Cl)cc1", "IC50": "31.5 µM"}, {"smiles": "Cc1ccc(-c2nc(NC(=O)COc3ccc(Cl)cc3)no2)cc1", "IC50": "1.33 µM"}, {"smiles": "Cc1noc(-c2cccc(=O)n2CC(=O)Nc2ccc(C)c(C)c2)n1", "IC50": "20.5 µM"}, {"smiles": "FC(F)(F)c1cccc(N2CCN(c3nc4ccccc4n4nnnc34)CC2)c1", "IC50": "> 50 µM (inactive)"}, {"smiles": "Fc1ccc(Cc2nc(-c3ccc4nncn4c3)no2)cc1", "IC50": "> 50 µM (inactive)"}]}]}
